In US10517844B2, “Inhibition of proline catabolism for the treatment of cancer and other therapeutic applications” (Buck Institute for Research on Aging, priority 2014, dated 2019):
“Also recorded” adds a separate entry of the source.

Assays:
DU4475 = test: Growth inhibition / cell viability, drug combination; type: cell-based, human; settings: for Growth inhibiting interaction with CB-839: 72 h
[1] = test system: DU4475 breast cancer cells; test: Apoptosis by cleaved PARP Western blot; type: cell-based, human; settings: DU4475, combined with MI-63
breast cancer models = test: Interaction of PRODH inhibitors with p53 wt restoration; type: cell-based, human; settings: various breast cancer models
Text: Our recent studies have shown that p53 wt restoration by the MDM2 inhibitor MI-63 triggers early and very different mitochondrial bioenergetic and global metabolic pool changes between malignant (e.g., MCF7, ZR-75-1, ZR-75-30, DU4475) and non-malignant (e.g., MCF-10A) mammary epithelial systems (Yau et al. (2011) Amer. Assoc. Cancer Res. 52: a3797, 2011; Yau et al. (2012) Amer. Assoc. Cancer Res. 53: a5160). Having first observed that PRODH siRNA knockdown promotes apoptosis in p53 wt breast cancer cells, we then evaluated PRODH knockdown in combination with MI-63 induced p53 restoration. […] Knockdown of P5CDH (the next enzymatic step in proline catabolism) produced a similar but less pronounced pro-apoptotic response in combination with MI-63, convincing us that PRODH is the most appropriate therapeutic target for synthetic lethality. […] Equally relevant, since PRODH provides a bypass source of mitochondrial glutamate for glutamine-addicted (e.g., GLS1 overexpressing) cancers, particularly those most sensitive to clinically emergent GLS1 inhibitors like CB-839 (Katt and Cerione (2014) Drug Discov. Today, 19: 450-457; Gross et al. (2014) Mol. Cancer Ther. 13: 890-901), our new data also supports the fact that PRODH inhibition induces a synthetic lethal anticancer response in combination with GLS1 inhibition among our various breast cancer models.

PRODH [2] = settings: cited from earlier work
[3] = test system: malignant breast epithelial cells; test: Protein levels after p53 restoration by MI-63; type: cell-based, human
Text: New cancer treatments based on the restoration or reactivation of p53 wt function were first envisioned over a decade ago, and multiple pharmacological strategies have since emerged from preclinical studies that now show great clinical promise (12-17), particularly against malignancies like breast cancers in which 75% of all newly diagnosed cases express wildtype p53 (TCGA Network (2012). Nature 490: 61-70). […] Likewise, p53 induced metabolic changes linking proline metabolism to the urea cycle (OAT) and to glutaminolysis (GLS2) and the TCA cycle have been observed in our model systems (Yau et al. (2012) Amer. Assoc. Cancer Res. 53: a5160).

PRODH [4] = biological target: T1, PRODH (Homo sapiens, UniProt O43272); test: NADH-generating mitochondrial PRODH bioassay; type: biochemical
T1 construct: Mitochondria freshly isolated from PPG pretreated (15 h) and washed (30 min) ZR-75-1 cells; endogenous in cells; host or cells: mitochondria isolated from ZR-75-1 human breast cancer cells
T1 sequence (O43272 1-600): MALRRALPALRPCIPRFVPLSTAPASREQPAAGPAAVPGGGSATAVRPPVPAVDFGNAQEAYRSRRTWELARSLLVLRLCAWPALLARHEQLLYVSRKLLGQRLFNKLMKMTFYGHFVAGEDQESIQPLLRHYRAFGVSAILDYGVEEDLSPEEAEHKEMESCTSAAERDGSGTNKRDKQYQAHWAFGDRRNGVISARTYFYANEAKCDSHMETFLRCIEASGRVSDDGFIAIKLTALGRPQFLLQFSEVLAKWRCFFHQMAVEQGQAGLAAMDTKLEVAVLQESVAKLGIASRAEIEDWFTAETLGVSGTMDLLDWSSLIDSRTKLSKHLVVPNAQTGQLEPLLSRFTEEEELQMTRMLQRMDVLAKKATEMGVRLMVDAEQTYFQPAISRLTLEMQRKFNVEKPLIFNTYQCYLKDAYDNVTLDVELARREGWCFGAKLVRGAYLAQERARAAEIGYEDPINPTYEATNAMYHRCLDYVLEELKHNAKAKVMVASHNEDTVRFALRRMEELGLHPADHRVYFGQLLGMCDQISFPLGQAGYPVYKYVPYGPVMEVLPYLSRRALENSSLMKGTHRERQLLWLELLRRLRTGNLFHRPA
Text: Mitochondrial PRODH bioassays capable of measuring inhibitor activity are described in Goncalves et al. (2014) Redox Biol. 2: 901-909 (which is hereby incorporated by reference herein for this description). These include, inter alia: i) spectrophotometric detection of OAB reacted with proline generated P5C, ii) dual wavelength spectrophotometric detection (A566-A575) of endogenous cytochrome b566 reduction that occurs directly upon mitochondrial PRODH oxidation of proline, and iii) fluorescence spectrometry detection (lex 340 nm, lem 460 nm) of mitochondrial NADH levels as a function of substrate and inhibitor treatment. See details in Example below. The mitochondrial PRODH assay is described therein detects mitochondrial NADH production resulting downstream from PRODH production of P5C and then glutamate, while controlling for other sources of mitochondrial NADH production.
We have optimized our mitochondrial preparation technique and developed three different mitochondrial PRODH bioassays capable of measuring inhibitor activity which are now reported (Goncalves et al. (2014) Redox Biol. 2: 901-909); these include: i) spectrophotometric detection of OAB reacted with proline generated P5C, ii) dual wavelength spectrophotometric detection (A566-A575) of endogenous cytochrome b566 reduction that occurs directly upon mitochondrial PRODH oxidation of proline, and iii) fluorescence spectrometry detection (lex 340 nm, lem 460 nm) of mitochondrial NADH levels as a function of substrate and inhibitor treatment.
Briefly, in an exemplary protocol, cells are harvested from 2 to 4500 cm^2 dishes at 90% confluence, washed three times in ice-cold STE (250 mM sucrose, 5 mM Tris-HCl, 2 mM EGTA, pH7.4), scraped off, suspended in 50 ml STE and centrifuged for 10 min at 500 g. The pellet is resuspended in STE supplemented with 1% (w/v) fatty acid-free bovine serum albumin and homogenized (up to 20 strokes). The suspension is brought to 50 ml and centrifuged for 5 min at 1000 g. The supernatant is centrifuged for 10 min at 11,000 g. The pellet is resuspended in STE and centrifuged for 10 min at 10,000 g. The mitochondrial pellet is resuspended in STE and kept on ice. Protein is determined by Bradford assay(Biorad).
NAD(P)H is measured using 0.3 mg mitochondrial protein/ml at 37° C. in KHEPMB (KHE containing 5 mM K2HPO4, 2 mM MgCl2, 0.3% (w/v) fatty acid-free bovine serum albumin) plus 1 mM ADP and 2.5 μg/ml oligomycin. The reduction state of endogenous NAD(P)H Is determined by autofluorescence using the Pherastar microplate reader at λexcitation=340 nm, λemission=460 nm. NAD(P)H was assumed to be 0% reduced after 5 min without added substrate, then rotenone was added. The 100% reduced level was established with saturating substrate (e.g., 5 mM malate, glutamate and proline) and 4 μM rotenone. Intermediate values were determined as % reduced NAD(P)H relative to the 0% and 100% values.
For screening purposes, the NADH fluorescence bioassay can be routinely used as it is the most sensitive and amenable to higher throughput.

MCF7 = test: Growth inhibition / cell viability, drug combination; type: cell-based, human; settings: for Cell viability, interaction with CB-839: MCF7, single dose, 48 h; for Growth inhibiting interaction with CB-839: 72 h
MCF10A cells = test: Cell viability, non-malignant cells; type: cell-based, human
[5] = test system: multiple breast cancer cell lines; test: Growth inhibition in combination with CB-839; type: cell-based, human
ZR-75-1 = test: Protein degradation in treated culture (Western blot); type: cell-based, human
PRODH [6] = test: Dietary PPG in adult Drosophila, Sluggish-A phenotype; type: in vivo; settings: dietary 5 mM x 48 h
Drosophila = Drosophila lifespan after dietary PPG during oogenesis; type: in vivo; settings: dietary 5 mM x 24 h during oogenesis, 2nd day collected eggs, 70 days
Description: Female Drosophila were starved for 4 h, then combined with males on liquid 5% sucrose food with or without 5 mM PPG. After 24 h, females were transferred to egg collection containers, and eggs collected after 1, 2, and 3 days. Collected eggs were transferred to bottles of regular food, separately for each collection day. Larvae developed normally, were transferred to vials after eclosion; vials were exchanged thrice weekly throughout life.

BT474 = test: Growth inhibition, drug combination; type: cell-based, human; settings: for Growth inhibiting interaction with CB-839: 72 h
ZR75-1 = test: Growth inhibition, drug combination; type: cell-based, human; settings: for Growth inhibiting interaction with CB-839: 72 h
[7] = ZR-75-1 cells pretreated 15 h, washed 30 min

O=C(O)[C@@H]1CCCO1 [L-THFA, L-tetrahydro-2-furoic acid]
Viable cell growth in culture (DU4475; DU4475, combined with MI-63): synthetic lethality effectiveness; also recorded: synergistically reduces viable cell growth
Apoptosis (c PARP production) over MI-63 treatment alone [1]: ~4 fold
Interaction with p53 wt restoration (breast cancer models): synthetic lethal interactions
Ki (PRODH [2]): 300 µM

CC(C)(C)C[C@H]1N[C@@H](C(=O)NCCN2CCOCC2)[C@H](c2cccc(Cl)c2F)[C@@]12C(=O)Nc1cc(Cl)ccc12 [MI-63]
Induction of PRODH protein levels [3]: ≥ 5 fold
P5C reductase (PYCR1) levels [3]: coordinate decrease
P5CDH protein level [3]: no change

C#CCNCC(=O)O [PPG, N-propargylglycine]
PRODH enzymatic inhibition compared at equimolar inhibitor concentration (PRODH [4]; 2 mM): significantly greater PRODH enzymatic inhibition over S-5-oxo
Malate metabolism (NADH formation) by isolated mitochondria (PRODH [4]; [7]): not affected; also recorded: fully capable of metabolizing malate
Proline metabolism (NADH formation) by isolated mitochondria (PRODH [4]; [7]): remain unable to metabolize proline; also recorded: remained completely unable to metabolize proline
Cell viability, interaction with CB-839 (MCF7): additive interactions
Cell viability / growth inhibition in non-malignant cells (MCF10A cells; combined with CB-839): no treatment effects; also recorded: lack of any growth inhibition
Growth inhibition in combination with CB-839 ([5]; within 48 h): additive growth inhibition
Growth inhibition in combination with CB-839 ([5]; within 72 h): synergistic growth inhibition
Time of exposure to PRODH protein degradation (ZR-75-1): ≤ 24 h
Cytoplasmic FAD containing protein MTHFR decline (ZR-75-1; ZR-75-1, 24-72 h): does not
Mitochondrial complex-1 protein NDUFS1 level (ZR-75-1; ZR-75-1, 24-72 h): also declines
Degradation of PRODH protein (ZR-75-1; ZR-75-1 culture treatment, within 24-72 h): 30-60%
Fly viability (PRODH [6]): without loss of fly viability
PRODH inhibition in vivo (Sluggish-A phenotype) (PRODH [6]): completely inhibits PRODH in vivo
Median and maximum lifespan (Drosophila): significantly extends median and maximum lifespan
Interaction with p53 wt restoration (breast cancer models): synthetic lethal interactions

O=C1CC[C@@H](C(=O)O)O1 [Compound 5-oxo, (S)-(+)-5-oxo-2-tetrahydrofurancarboxylic acid]
S versus R isomers in mitochondrial PRODH bioassay (PRODH [4]): stereospecificity of S-5-oxo
PRODH enzymatic inhibition after washout (PRODH [4]; same washout (30 min)): completely lost (reversed); also recorded: completely lost by washout
Treatment interaction (BT474; BT474, 5-oxo (1 μM) + CB839 (1 μM)): Additive
Growth inhibiting interaction with CB-839 (BT474; BT474, +5-oxo (5 mM)): Additive
Treatment interaction (MCF7; MCF7, 5-oxo (1 μM) + CB839 (1 μM)): Synergistic
Growth inhibiting interaction with CB-839 (MCF7; MCF7, +5-oxo (5 mM)): Synergistic
Cell viability, interaction with CB-839 (MCF7): additive interactions
Treatment interaction (DU4475; DU4475, 5-oxo (1 μM) + CB839 (1 μM)): Synergistic
Growth inhibiting interaction with CB-839 (DU4475; DU4475, +5-oxo (5 mM)): Synergistic
Treatment interaction (ZR75-1; ZR75-1, 5-oxo (1 μM) + CB839 (1 μM)): Synergistic
Growth inhibiting interaction with CB-839 (ZR75-1; ZR75-1, +5-oxo (5 mM)): Synergistic
Cell viability / growth inhibition in non-malignant cells (MCF10A cells; combined with CB-839): no treatment effects
Cell viability / growth inhibition in non-malignant cells (MCF10A cells; combined with CB-839, listed as S-5-oxo): lack of any growth inhibition
Growth inhibition in combination with CB-839 ([5]; within 48 h): additive growth inhibition
Growth inhibition in combination with CB-839 ([5]; within 72 h): synergistic growth inhibition
Interaction with p53 wt restoration (breast cancer models): synthetic lethal interactions

COc1ccc(C2=N[C@@H](c3ccc(Cl)cc3)[C@@H](c3ccc(Cl)cc3)N2C(=O)N2CCNC(=O)C2)c(OC(C)C)c1 [Nutlin-3a, reference compound]
Growth inhibiting interaction with CB-839 (BT474; BT474, +Nutlin-3a (5 μM)): No interaction
Growth inhibiting interaction with CB-839 (MCF7; MCF7, +Nutlin-3a (5 μM)): Additive
Growth inhibiting interaction with CB-839 (DU4475; DU4475, +Nutlin-3a (5 μM)): Synergistic
Growth inhibiting interaction with CB-839 (ZR75-1; ZR75-1, +Nutlin-3a (5 μM)): Additive

C#CC(C)NCC(=O)O (racemic) [(R/S)-PPG]
PRODH inhibiting activity (PRODH [4]; mitochondrial PRODH assay): retains PRODH inhibiting activity
